From US7192948B2, “Bicyclic heterocycles as HIV integrase inhibitors” (priority 2004, dated 2007)

Molecular target: T1, HIV-integrase (Human immunodeficiency virus type 1 group M subtype B, UniProt P12497)
T1 construct: Recombinant integrase (0.26 ng) was incubated with the beads
Experiment: HIV-Integrase Inhibition Activity (SPA bead strand transfer assay)
Format: biochemical
Conditions: recombinant integrase, in vitro
Description: HIV-Integrase Inhibition Activity. To evaluate in-vitro activity against HIV-integrase, 5 pmole of biotin labeled substrate DNA was bound to 100 μg of Streptavidin coated PVT SPA beads (Amersham Pharmacia Biotech). Recombinant integrase (0.26 ng) was incubated with the beads for 90 min at 37° C. Unbound enzyme was removed by washing the complex followed by addition of inhibitors and 0.1 fmol of P33 labeled target DNA. The reaction was stopped by adding EDTA to a final concentration of […]. Samples were counted in TopCountNXT (Packard) and the CPM was used as a measure of integration. The reaction condition was as described in A. Engelman and R. Craigie, J. Virol. 69, 5908–5911 (1995). The sequences of substrate and target DNA were described in Nucleic Acid Research 22, 1121–1122 (1994).

`Cc1cc(CNC(=O)c2nc3n(c(=O)c2O)CC(=O)N3Cc2ccccc2)ccc1F` [Example 15, N-(4-Fluoro-3-methylbenzyl)-1-benzyl-6-hydroxy-2,5-dioxo-1,2,3,5-tetrahydroimidazo[1,2-a]pyrimidine-7-carboxamide] and `O=C(NCc1ccc(F)cc1)c1nc2n(c(=O)c1O)CC(=O)N2Cc1ccccc1` [Example 14, N-(4-Fluorobenzyl)-1-benzyl-6-hydroxy-2,5-dioxo-1,2,3,5-tetrahydroimidazo[1,2-a]pyrimidine-7-carboxamide] fall in the same range of IC50: 0.016 to 49 µM for the first, 0.016 to 49 µM for the second.

`CN1C(=O)Cn2c(nc(C(=O)NCc3ccc(Cl)c(Cl)c3)c(O)c2=O)N1C` [Example 26, N-(3,4-Dichlorobenzyl)-1,2-dimethyl-7-hydroxy-3,6-dioxo-2,3,4,6-tetrahydro-1H-pyrimido[2,1-c][1,2,4]triazine-8-carboxamide] and `CN1C(=O)Cn2c(nc(C(=O)NCc3ccc(F)c(Cl)c3)c(O)c2=O)N1C` [Example 28, N-(3-Chloro-4-fluorobenzyl)-1,2-dimethyl-7-hydroxy-3,6-dioxo-2,3,4,6-tetrahydro-1H-pyrimido[2,1-c][1,2,4]triazine-8-carboxamide] fall in the same range of IC50: 0.016 to 49 µM for the first, 0.016 to 49 µM for the second.

`CC1(C)NC(=O)Cn2c1nc(C(=O)NCc1ccc(F)cc1)c(O)c2=O` [Example 45, N-(4-fluorobenzyl)-3-hydroxy-9,9-dimethyl-4,7-dioxo-6,7,8,9-tetrahydro-4H-pyrazino[1,2-a]pyrimidine-2-carboxamide] and `O=C1Cn2c(nc(C(=O)NCc3ccc(F)cc3)c(O)c2=O)N1` [Example 1, 6-Hydroxy-2,5-dioxo-1,2,3,5-tetrahydro-imidazo[1,2-a]pyrimidine-7-carboxylic acid 4-fluoro-benzylamide] cannot be ordered by IC50: 0.016 to 49 µM for the first, no less than 0.05 µM for the second.

`CN1Nc2nc(C(=O)NCc3ccc(F)cc3)c(O)c(=O)n2CC1=O` [Example 29, N-(4-Fluorobenzyl)-7-hydroxy-2-methyl-3,6-dioxo-2,3,4,6-tetrahydro-1H-pyrimido[2,1-c][1,2,4]triazine-8-carboxamide] and `CN1C(=O)Cn2c1nc(C(=O)NCc1ccc(F)cc1)c(O)c2=O` [Example 9, N-(4-Fluorobenzyl)-6-hydroxy-1-methyl-2,5-dioxo-1,2,3,5-tetrahydroimidazo[1,2-a]pyrimidine-7-carboxamide] cannot be ordered by IC50: no less than 0.05 µM for the first, no less than 0.05 µM for the second.

Compared with `Cc1cc(CNC(=O)c2nc3n(c(=O)c2O)CC(=O)N3C)ccc1F` [Example 11, N-(4-Fluoro-3-methylbenzyl)-6-hydroxy-1-methyl-2,5-dioxo-1,2,3,5-tetrahydroimidazo[1,2-a]pyrimidine-7-carboxamide], `CN1C(=O)Cn2c1nc(C(=O)NCc1ccc(F)c(Cl)c1)c(O)c2=O` [Example 12, N-(3-Chloro-4-fluorobenzyl)-6-hydroxy-1-methyl-2,5-dioxo-1,2,3,5-tetrahydroimidazo[1,2-a]pyrimidine-7-carboxamide] is higher in IC50: 0.004 to 0.015 µM for the first, 0.016 to 49 µM for the second. The first is the more potent here.

First: Cc1cc(CNC(=O)c2nc3n(c(=O)c2O)CCS3)ccc1F [Example 37, N-(4-Fluoro-3-methylbenzyl)-6-hydroxy-5-oxo-3,5-dihydro-2H-thiazolo[3,2-a]pyrimidine-7-carboxamide]
Second: Cc1ccc(CNC(=O)c2nc3n(c(=O)c2O)CCS3)cc1C [Example 39, N-(3,4-Dimethylbenzyl)-6-hydroxy-5-oxo-3,5-dihydro-2H-thiazolo[3,2-a]pyrimidine-7-carboxamide]
The IC50 of the first is lower: 0.004 to 0.015 µM for the first, 0.016 to 49 µM for the second.

`CN1Cc2nc(C(=O)NCc3ccc(F)cc3)c(O)c(=O)n2CC1=O` [Example 44, N-(4-Fluorobenzyl)-3-hydroxy-8-methyl-4,7-dioxo-6,7,8,9-tetrahydro-4H-pyrazino[1,2-a]pyrimidine-2-carboxamide] and `O=C1Cn2c(nc(C(=O)NCc3ccc(F)cc3)c(O)c2=O)CN1` [Example 43, N-(4-Fluorobenzyl)-3-hydroxy-4,7-dioxo-6,7,8,9-tetrahydro-4H-pyrazino[1,2-a]pyrimidine-2-carboxamide] cannot be ordered by IC50: no less than 0.05 µM for the first, no less than 0.05 µM for the second.

`CN1C(=O)Cn2c(nc(C(=O)NCc3ccc(F)cc3)c(O)c2=O)N1C` [Example 25, N-(4-Fluorobenzyl)-1,2-dimethyl-7-hydroxy-3,6-dioxo-2,3,4,6-tetrahydro-1H-pyrimido[2,1-c][1,2,4]triazine-8-carboxamide] and `Cc1cc(CNC(=O)c2nc3n(c(=O)c2O)CC(=O)N(C)N3C)ccc1F` [Example 27, N-(4-Fluoro-3-methylbenzyl)-1,2-dimethyl-7-hydroxy-3,6-dioxo-2,3,4,6-tetrahydro-1H-pyrimido[2,1-c][1,2,4]triazine-8-carboxamide] fall in the same range of IC50: 0.016 to 49 µM for the first, 0.016 to 49 µM for the second.

`Cc1cc(CNC(=O)c2nc3n(c(=O)c2O)CC(=O)N2CCCCN32)ccc1F` [Example 32, 2-Hydroxy-1,9-dioxo-5,6,7,8,9,10-hexahydro-1H-4,4b,8a,10a-tetraaza-phenanthrene-3-carboxylic acid 4-fluoro-3-methyl-benzylamide] and `Cc1cc(CNC(=O)c2nc3n(c(=O)c2O)CC(=O)N2CCCN32)ccc1F` [Example 35, 7-Hydroxy-4,6-dioxo-2,3,4,5-tetrahydro-1H,6H-3a,5a,9,9b-tetraaza-benz[e]indene-8-carboxylic acid 4-fluoro-3-methyl-benzylamide] fall in the same range of IC50: 0.004 to 0.015 µM for the first, 0.004 to 0.015 µM for the second.

`O=C(NCc1ccc(F)cc1)c1nc2n(c(=O)c1O)CC(=O)N1CCCN21` [Example 34, 7-Hydroxy-4,6-dioxo-2,3,4,5-tetrahydro-1H,6H-3a,5a,9,9b-tetraaza-benz[e]indene-8-carboxylic acid 4-fluoro-benzylamide] and `O=C(NCc1ccc(F)cc1)c1nc2n(c(=O)c1O)CC(=O)N1CCCCN21` [Example 33, 2-Hydroxy-1,9-dioxo-5,6,7,8,9,10-hexahydro-1H-4,4b,8a,10a-tetraaza-phenanthrene-3-carboxylic acid 4-fluoro-benzylamide] fall in the same range of IC50: 0.016 to 49 µM for the first, 0.016 to 49 µM for the second.

`CN1Nc2nc(C(=O)NCc3ccc(Cl)c(Cl)c3)c(O)c(=O)n2CC1=O` [Example 31, N-(3,4-Dichlorobenzyl)-7-hydroxy-2-methyl-3,6-dioxo-2,3,4,6-tetrahydro-1H-pyrimido[2,1-c][1,2,4]triazine-8-carboxamide] and `CN1C(=O)Cn2c1nc(C(=O)NCc1ccc(Cl)c(Cl)c1)c(O)c2=O` [Example 10, N-(3,4-Dichlorobenzyl)-6-hydroxy-1-methyl-2,5-dioxo-1,2,3,5-tetrahydroimidazo[1,2-a]pyrimidine-7-carboxamide] fall in the same range of IC50: 0.004 to 0.015 µM for the first, 0.004 to 0.015 µM for the second.

`O=C(NCc1ccc(Cl)c(Cl)c1)c1nc2n(c(=O)c1O)CCS2` [Example 38, N-(3,4-Dichlorobenzyl)-6-hydroxy-5-oxo-3,5-dihydro-2H-thiazolo[3,2-a]pyrimidine-7-carboxamide] and `O=C(NCc1ccc(F)cc1)c1nc2n(c(=O)c1O)CCS2` [Example 36, N-(4-Fluorobenzyl)-6-hydroxy-5-oxo-3,5-dihydro-2H-thiazolo[3,2-a]pyrimidine-7-carboxamide] fall in the same range of IC50: 0.004 to 0.015 µM for the first, 0.004 to 0.015 µM for the second.

`CNC(=O)c1cc(F)ccc1CNC(=O)c1nc2n(c(=O)c1O)CCS2` [Example 40, N-(4-Fluoro-2-(methylcarbamoyl)benzyl)-6-hydroxy-5-oxo-3,5-dihydro-2H-thiazolo[3,2-a]pyrimidine-7-carboxamide] and `CNC(=O)c1cc(F)ccc1CNC(=O)c1nc2n(c(=O)c1O)CC(C)(C)S2` [Example 42, N-(4-Fluoro-2-(methylcarbamoyl)benzyl)-6-hydroxy-2,2-dimethyl-5-oxo-3,5-dihydro-2H-thiazolo[3,2-a]pyrimidine-7-carboxamide] cannot be ordered by IC50: 0.016 to 49 µM for the first, no less than 0.05 µM for the second.

`Cc1ccc(CNC(=O)c2nc3n(c(=O)c2O)CC(=O)N3C)cc1C` [Example 13, N-(3,4-Dimethylbenzyl)-6-hydroxy-1-methyl-2,5-dioxo-1,2,3,5-tetrahydroimidazo[1,2-a]pyrimidine-7-carboxamide] and `Cc1cc(CNC(=O)c2nc3n(c(=O)c2O)CC(=O)N(C)N3)ccc1F` [Example 30, N-(4-Fluoro-3-methylbenzyl)-7-hydroxy-2-methyl-3,6-dioxo-2,3,4,6-tetrahydro-1H-pyrimido[2,1-c][1,2,4]triazine-8-carboxamide] cannot be ordered by IC50: 0.016 to 49 µM for the first, no less than 0.05 µM for the second.

`O=C(NCc1ccc(F)cc1)c1nc2n(c(=O)c1O)CC(=O)N1CCC[C@@H]21` [Example 46, (S)-7-Hydroxy-4,6-dioxo-2,3,4,5,6,9b-hexahydro-1H-3a,5a,9-triaza-benz[e]indene-8-carboxylic acid 4-fluoro-benzylamide] and `O=C(NCc1ccc(F)cc1)c1nc2n(c(=O)c1O)CCS(=O)(=O)N2` [Example 24, 7-Hydroxy-2,2,6-trioxo-1,3,4,6-tetrahydro-2H-2λ^6-pyrimido[2,1-c][1,2,4]thiadiazine-8-carboxylic acid 4-fluoro-benzylamide] cannot be ordered by IC50: no less than 0.05 µM for the first, no less than 0.05 µM for the second.

`CNC(=O)c1cc(F)ccc1CNC(=O)c1nc2n(c(=O)c1O)CC(=O)N2Cc1ccccc1` [Example 16, N-(4-Fluoro-2-(methylcarbamoyl)benzyl)-1-benzyl-6-hydroxy-2,5-dioxo-1,2,3,5-tetrahydroimidazo[1,2-a]pyrimidine-7-carboxamide] and `CNC(=O)c1cc(F)ccc1CNC(=O)c1nc2n(c(=O)c1O)CC(=O)N2C` [Example 17, N-{4-Fluoro-2-(methylcarbamoyl)benzyl}-6-hydroxy-1-methyl-2,5-dioxo-1,2,3,5-tetrahydroimidazo[1,2-a]pyrimidine-7-carboxamide] cannot be ordered by IC50: 0.016 to 49 µM for the first, no less than 0.05 µM for the second.

`CC1(C)Cn2c(nc(C(=O)NCc3ccc(F)cc3)c(O)c2=O)S1` [Example 41, N-(4-Fluorobenzyl)-6-hydroxy-2,2-dimethyl-5-oxo-3,5-dihydro-2H-thiazolo[3,2-a]pyrimidine-7-carboxamide] gave an IC50 of no less than 0.05 µM.
